Measurements published in the NIST ThermoML archive (doi:10.1021/je700523b).

Experiment: wn = mass fraction of the nth substance listed
Conditions: 298.15 K; for surface tension liquid-gas: Pendant drop shape; for mass density / viscosity: 101 kPa, Liquid; for mass density: Vibrating tube method

CCOS(=O)(=O)[O-].CCn1cc[n+](C)c1 [1-ethyl-3-methylimidazolium ethyl sulfate] + O
Conditions	mass density [kg/m3]	surface tension liquid-gas [mN/m]	viscosity [mPa·s]
w2 = 0.000475	1236.26	47	91.85
w2 = 0.00754	1234.51	47.23	83.6
w2 = 0.0144	1233.93	48.01	70.21
w2 = 0.02531	1231.35	48.08	65.61
w2 = 0.03047	1230	48.09	55.78
w2 = 0.03849	1227.15	47.93	41.85
w2 = 0.04185	1228.01	48.14	33.3
w2 = 0.05643	1226.3	47.95	30.63
w2 = 0.06937	1222.45	48.25	24.8
w2 = 0.07519	1219.51	48.97	23.63
w2 = 0.09292	1215.44	49.35	17.41
w2 = 0.09493	1214.98	50.11	14.73
